In patent US20250066383A1, “PDE 7 MODULATOR COMPOUNDS” (Omeros Corporation, priority 2023, published 2025) one finds IC50 data, which are given here for 26 compounds.

Assay [1] deals with PDE7A (Homo sapiens (Human), UniProt Q13946). The experiment in a line: PDE7A assay: inhibition of PDE7A hydrolysis of [3H]cAMP to [3H]AMP (scintillation proximity, yttrium silicate beads). The format is biochemical. The conditions noted are these: 16 nM [3H]cAMP, 30° C., 20 minutes; read-out: PDE 7A IC50. The procedure:
(§1) PDE7A and PDE7B Assay. Compounds were tested for their activity by measuring the inhibition of PDE7A or PDE7B hydrolysis of [3H]cAMP to [3H]AMP. Generally, eight dilutions of compound were assayed in 50 mM Tris-HCl pH 7.5, 8.3 mM MgCl2, 0.5 mg/mL BSA, 1.7 mM EGTA, 16 nM [3H]cAMP, and 1% DMSO. PDE7A or PDE7B (typically 1-5 ng/mL) (BPS BioSciences, CA) is added to initiate the reaction. The reaction was incubated at 30° C. for 20 minutes. PDE7A and PDE7B hydrolysis was terminated by the addition of yttrium silicate beads (GE Healthcare, RPNQ0150) and counted on a Wallac Microbeta scintillation counter, 1-2 hours following the addition of the beads. Data was analyzed using XLfit […] from which ICso values were obtained.
A general note: Scintillation proximity formats need no separation of bound from free tracer.

The target of assay [2] is PDE7B (Homo sapiens (Human), UniProt Q9NP56). Briefly: PDE7B assay: inhibition of PDE7B hydrolysis of [3H]cAMP to [3H]AMP (scintillation proximity, yttrium silicate beads). The format is biochemical. The conditions noted are these: 16 nM [3H]cAMP, 30° C., 20 minutes; read-out: PDE 7B IC50. As for the experimental part: as §1
Sequence of PDE7B (Q9NP56 whole entry): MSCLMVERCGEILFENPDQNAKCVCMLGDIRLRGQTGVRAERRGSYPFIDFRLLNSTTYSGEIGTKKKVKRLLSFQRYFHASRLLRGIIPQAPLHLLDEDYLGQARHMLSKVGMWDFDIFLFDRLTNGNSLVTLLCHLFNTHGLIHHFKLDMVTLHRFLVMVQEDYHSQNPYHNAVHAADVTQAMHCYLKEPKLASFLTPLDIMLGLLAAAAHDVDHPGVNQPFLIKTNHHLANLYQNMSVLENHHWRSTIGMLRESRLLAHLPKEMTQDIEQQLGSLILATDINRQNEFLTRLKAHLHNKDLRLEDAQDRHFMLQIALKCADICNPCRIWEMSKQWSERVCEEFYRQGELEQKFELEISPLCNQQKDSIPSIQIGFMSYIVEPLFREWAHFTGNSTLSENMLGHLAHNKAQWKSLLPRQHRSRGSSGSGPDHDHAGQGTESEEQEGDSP

Sequence of PDE7A (Q13946 whole entry): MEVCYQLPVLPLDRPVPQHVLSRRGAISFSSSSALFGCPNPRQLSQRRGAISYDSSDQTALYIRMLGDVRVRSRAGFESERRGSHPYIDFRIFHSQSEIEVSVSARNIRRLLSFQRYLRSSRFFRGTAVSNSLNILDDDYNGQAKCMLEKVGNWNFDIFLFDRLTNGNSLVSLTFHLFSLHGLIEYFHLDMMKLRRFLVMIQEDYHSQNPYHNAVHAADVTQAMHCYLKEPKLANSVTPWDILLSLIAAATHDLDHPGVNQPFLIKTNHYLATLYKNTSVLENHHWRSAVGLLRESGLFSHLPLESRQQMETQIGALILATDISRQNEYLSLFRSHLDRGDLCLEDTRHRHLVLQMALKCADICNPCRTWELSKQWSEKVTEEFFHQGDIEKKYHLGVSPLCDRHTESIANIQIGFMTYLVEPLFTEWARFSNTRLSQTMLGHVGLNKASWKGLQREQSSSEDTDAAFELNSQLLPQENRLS

The IC50 is the concentration that gives 50% inhibition. `Cc1nn(C2CCC(F)(F)CC2)c2sc(C(=O)N[C@H]3CC[C@H](N4CCN(CC(F)(F)F)CC4)CC3)cc12` [II-12, 1-(4,4-difluorocyclo-hexyl)-N-((1r,4r)-4-(4-(2,2-trifluoroeth-yl)piperazin-1-yl)-cyclohexyl)-3-meth-yl-1H-thieno[2,3-c] pyrazole-5-carbox-amide]: the concentration for half-maximal inhibition (IC50) is under 10 nM in assay [1] and 10 to 30 nM in assay [2].

Regarding `Cc1nn(CC(C)(C)C)c2sc(C(=O)N[C@H]3CC[C@H](N4CCN(CC(F)F)CC4)CC3)cc12` [II-28, N-((1r,4r)-4-(4-(2,2-difluoroethyl)piper-azin-1-yl)cyclohex-yl)-3-methyl-1-neo-pentyl-1H-thieno [2,3-c]pyrazole-5-carboxamide], the IC50 in assay [1] and in assay [2] was 10 to 30 nM in each case.

With `COC1CN([C@H]2CC[C@H](NC(=O)c3cc4c(C)nn(CC(C)(C)C)c4s3)CC2)C1` [II-45, N-((1r,4r)-4-(3-methoxyazetidin-1-yl)cyclohexyl)-3-methyl-1-neopentyl-1H-thieno[2,3-c]pyr-azole-5-carboxamide], the IC50 in assay [1] is under 10 nM; in assay [2] it was 10 to 30 nM.

Regarding `Cc1nn(C2CCC(F)(F)CC2)c2sc(C(=O)N[C@H]3CC[C@H](N4CC(F)(F)C4)CC3)cc12` [II-17, N-((1r,4r)-4-(3,3-difluoroazetidin-1-yl)cyclohexyl)-1-(4,4-difluorocyclohexyl)-3-methyl-1H-thieno [2,3-c]pyrazole-5-carboxamide], the IC50 in assay [1] and in assay [2] was under 10 nM in each case.

For `Cc1nn(-c2ccccc2Cl)c2sc(C(=O)N[C@H]3C[C@H](N4CCN(C5CC5)CC4)C3)cc12` [Compound I-6, 1-(2-chlorophenyl)-N-((1r,3r)-3-(4-cyclo-propylpiperazin-1-yl)-cyclobutyl)-3-methyl-1H-thieno[2,3-c]pyr-azole-5-carboxamide], the IC50 in assay [1] and in assay [2] was 30 to 100 nM in each case.

`Cc1nn(CC(C)(C)C)c2sc(C(=O)Nc3ccc(N4CCOCC4)c(C#N)c3)cc12` [II-40, N-(3-cyano-4-mor-pholinophenyl)-3-methyl-1-neopentyl-1H-thieno[2,3-c]pyr-azole-5-carboxamide]: the IC50 in assay [1] and in assay [2] was 100 to 500 nM in each case.

Take `Cc1nn(CC(C)C)c2sc(C(=O)N[C@H]3CC[C@H](N4CCN(C(=O)N(C)C)CC4)CC3)cc12` [II-19, N-((1r,4r)-4-(4-(dimethylcarbamo-yl)piperazin-1-yl)-cyclohexyl)-1-iso-butyl-3-methyl-1H-thieno[2,3-c]pyrazole-5-carboxamide]: the IC50 lay in the range of 10 to 30 nM in assay [1] and 30 to 100 nM in assay [2].

Consider `Cc1nn(CC(C)C)c2sc(C(=O)N[C@H]3CC[C@H](N4CCN(CC(F)F)CC4)CC3)cc12` [II-8, N-((1r,4r)-4-(4-(2,2-difluoroethyl)piper-azin-1-yl)cyclohexyl)-1-isobutyl-3-methyl-1H-thieno[2,3-c]pyr-azole-5-carboxamide], for which the IC50 in assay [1] and in assay [2] was 30 to 100 nM in each case.

In the case of `Cc1nn(CC(C)(C)C)c2sc(C(=O)N[C@H]3CC[C@H](N4CC(C#N)C4)CC3)cc12` [II-36, N-((1r,4r)-4-(3-cyanoazetidin-1-yl)-cyclohexyl)-3-meth-yl-1-neopentyl-1H-thieno[2,3-c]pyr-azole-5-carboxamide], the IC50 in assay [1] and in assay [2] was under 10 nM throughout.

Take `Cc1nn(-c2ccccc2Cl)c2sc(C(=O)N[C@H]3CC[C@H](N4CCOCC4)CC3)cc12` [Compound I-2, 1-(2-chlorophenyl)-3-methyl-N-((1r,4r)-4-morpholinocyclohex-yl)-1H-thieno[2,3-c] pyrazole-5-carbox-amide]: the IC50 in assay [1] and in assay [2] was 10 to 30 nM each time.

As to `Cc1nn(C2CCC(F)(F)CC2)c2sc(C(=O)N[C@H]3CC[C@H](N4CCN(C5CC5)CC4)CC3)cc12` [II-15, N-((1r,4r)-4-(4-cyclo-propylpiperazin-1-yl)cyclohexyl)-1-(4,4-difluorocyclohexyl)-3-methyl-1H-thieno [2,3-c]pyrazole-5-carboxamide], the IC50 in assay [1] and in assay [2] was 10 to 30 nM throughout.

For `Cc1nn(CC(C)(C)C)c2sc(C(=O)N[C@H]3CC[C@H](N4CC(F)(F)C4)CC3)cc12` [II-30, N-((1r,4r)-4-(3,3-difluoroazetidin-1-yl)cyclohexyl)-3-methyl-1-neopentyl-1H-thieno[2,3-c]pyr-azole-5-carboxamide], the IC50 in assay [1] and in assay [2] was under 10 nM throughout.

As to `Cc1nn(CC2CCC2)c2sc(C(=O)N[C@H]3CC[C@H](N4CC(F)(F)C4)CC3)cc12` [II-22, 1-(cyclobutylmethyl)-N-((1r,4r)-4-(3,3-difluoroazetidin-1-yl)cyclohexyl)-3-methyl-1H-thieno [2,3-c]pyrazole-5-carboxamide], the IC50 in assay [1] and in assay [2] was 30 to 100 nM each time.

`Cc1nn(C2CCC(F)(F)CC2)c2sc(C(=O)N[C@H]3CC[C@H](N4CCN(CC(F)F)CC4)CC3)cc12` [II-11, 1-(4,4-difluorocyclo-hexyl)-N-((1r,4r)-4-(4-(2,2-difluoroeth-yl)piperazin-1-yl)-cyclohexyl)-3-meth-yl-1H-thieno[2,3-c] pyrazole-5-carbox-amide]: the IC50 in assay [1] and in assay [2] was 10 to 30 nM throughout.

In the case of `Cc1nn(CC2CCC2)c2sc(C(=O)N[C@H]3CC[C@H](N4CCN(C5CC5)CC4)CC3)cc12` [II-20, 1-(cyclobutylmethyl)-N-((1r,4r)-4-(4-cyclopropylpiperazin-1-yl)cyclohexyl)-3-methyl-1H-thieno [2,3-c]pyrazole-5-carboxamide], the values for the IC50 in assay [1] and in assay [2] were 30 to 100 nM and 100 to 500 nM, respectively.

Take `Cc1nn(C2CCC(F)(F)CC2)c2sc(C(=O)N[C@H]3CC[C@H](N4CCN(C(C)C)CC4)CC3)cc12` [II-10, 1-(4,4-difluorocyclo-hexyl)-N-((1r,4r)-4-(4-isopropylpiper-azin-1-yl)cyclohex-yl)-3-methyl-1H-thieno[2,3-c]pyra-zole-5-carboxamide]: the IC50 in assay [1] and in assay [2] was under 10 nM throughout.

As for `CC(=O)N1CCN([C@H]2C[C@H](NC(=O)c3cc4c(C)nn(-c5ccccc5Cl)c4s3)C2)CC1` [Compound I-5, N-((1r,3r)-3-(4-acetyl-piperazin-1-yl)cyclo-butyl)-1-(2-chlorophen-yl)-3-methyl-1H-thieno [2,3-c]pyrazole-5-carboxamide], the IC50 in assay [1] and in assay [2] was 30 to 100 nM each time.

As for `Cc1nn(CC(C)C)c2sc(C(=O)N[C@H]3CC[C@H](N4CC(F)(F)C4)CC3)cc12` [II-4, N-((1r,4r)-4-(3,3-difluoroazetidin-1-yl)-cyclohexyl)-1-isobut-yl-3-methyl-1H-thieno [2,3-c]pyrazole-5-carboxamide], the IC50 in assay [1] lay in the range of 10 to 30 nM; in assay [2], 30 to 100 nM.

`CC(=O)N1CCN([C@H]2CC[C@H](NC(=O)c3cc4c(C)nn(C5CCC(F)(F)CC5)c4s3)CC2)CC1` [II-9, N-((1r,4r)-4-(4-acet-ylpiperazin-1-yl)-cyclohexyl)-1-(4,4-difluorocyclohexyl)-3-methyl-1H-thieno [2,3-c]pyrazole-5-carboxamide]: the IC50 in assay [1] and in assay [2] was under 10 nM in each case.

Take `Cc1nn(C2CCC(F)(F)CC2)c2sc(C(=O)N[C@H]3C[C@H](N4CCC(F)(F)C4)C3)cc12` [II-3, 1-(4,4-difluorocyclo-hexyl)-N-(3-(3,3-difluoropyrrolidin-1-yl)cyclobutyl)-3-methyl-1H-thieno [2,3-c]pyrazole-5-carboxamide]: the IC50 in assay [1] and in assay [2] was 10 to 30 nM in each case.

On to `Cc1nn(CC(C)(C)C)c2sc(C(=O)N[C@H]3C[C@H](N4CCN(C5CC5)CC4)C3)cc12` [II-34, N-((1r,3r)-3-(4-cyclo-propylpiperazin-1-yl)cyclobutyl)-3-methyl-1-neopentyl-1H-thieno[2,3-c] pyrazole-5-carbox-amide], for which the concentration for half-maximal inhibition (IC50) in assay [1] is 10 to 30 nM; in assay [2] it was 30 to 100 nM.

Consider `Cc1nn(C2CCC(F)(F)CC2)c2sc(C(=O)N[C@H]3C[C@H](N4CCOCC4)C3)cc12` [II-18, 1-(4,4-difluorocyclo-hexyl)-3-methyl-N-((1r,3r)-3-morpho-linocyclobutyl)-1H-thieno[2,3-c]pyrazole-5-carboxamide], for which the IC50 in assay [1] and in assay [2] was 10 to 30 nM throughout.

On to `Cc1nn(CC(C)(C)C)c2sc(C(=O)Nc3ccc(N4CCOCC4)nc3)cc12` [II-35, 3-methyl-N-(6-morpholinopyridin-3-yl)-1-neopentyl-1H-thieno[2,3-c]pyr-azole-5-carboxamide], for which the IC50 in assay [1] and in assay [2] was 10 to 30 nM each time.

As to `CC(=O)N1CCN([C@H]2CC[C@H](NC(=O)c3cc4c(C)nn(CC(C)C)c4s3)CC2)CC1` [II-16, N-((1r,4r)-4-(4-acet-ylpiperazin-1-yl)-cyclohexyl)-1-iso-butyl-3-methyl-1H thieno[2,3-c]pyrazole-5-carboxamide], the IC50 in assay [1] was 10 to 30 nM; in assay [2], 30 to 100 nM.

Take `CC(=S)N1CCN([C@H]2CC[C@H](NC(=O)c3cc4c(C)nn(CC(C)C)c4s3)CC2)CC1` [II-23, N-((1r,4r)-4-(4-ethanethioylpiperazin-1-yl)cyclohexyl)-1-isobutyl-3-methyl-1H-thieno[2,3-c]pyrazole-5-carboxamide]: the results for the IC50 in assay [1] and in assay [2] were 10 to 30 nM and 30 to 100 nM, respectively.

Consider `Cc1nn(-c2ccccn2)c2sc(C(=O)N[C@H]3CC[C@H](N4CCOCC4)CC3)cc12` [Compound I-1, 3-methyl-N-((1r,4r)-4-morpholinocyclohex-yl)-1-(pyridin-2-yl)-1H-thieno[2,3-c]pyr-azole-5-carboxamide], for which the IC50 in assay [1] and in assay [2] was 100 to 500 nM throughout.
